The record followed here is US9334280B2, “Synthetic rigidin analogues as anticancer agents, salts, solvates and prodrugs thereof, and method of producing same” (New Mexico Technical Research Foundation, priority 2012, dated 2016).

Assay [1] deals with HeLa cervical adenocarcinoma cells. Description: MTT antiproliferative assay, HeLa. In kind it is cell-based. The following applies: Homo sapiens, MTT, ± SD. The procedure:
(§1) Human T-cell leukemia cell line Jurkat (ATCC TIB-152, E6-1 clone) was cultured in RPMI-1640 (Invitrogen) supplemented with 10% FBS (Invitrogen), 100 mg/L penicillin G, 100 mg/L streptomycin, 1.0 mM sodium pyruvate, 1.5 g/L sodium bicarbonate, and 4.5 g/L glucose (all from Sigma). Human cervical cancer cell line HeLa (ATCC S3) was cultured in DMEM (Invitrogen) supplemented with 10% FBS, 100 mg/L penicillin G, and 100 mg/L streptomycin. MCF-7 (human mammary carcinoma) cells were cultured in DMEM supplemented with 1.0 mM sodium pyruvate, 1% GlutaMax™-1 (Invitrogen), 100 μg/mL penicillin, 100 μg/mL streptomycin, and 10% FBS. Human uterine sarcoma MES-SA and MES-SA/Dx5 cells were cultured in RPMI-1640 medium supplemented with 10% FBS, 100 mg/L penicillin G and 100 mg/L streptomycin. All cells were incubated at 37° C. in a humidified atmosphere with 5% CO2. The other cell lines were maintained in a similar fashion as previously described.
(§2) To evaluate antiproliferative properties of the compounds of Formula I, mitochondrial dehydrogenase activities were measured using the MTT assay. The cell lines were prepared by trypsinizing and seeding […] cells per well into microplates. All compounds were reconstituted in dimethyl sulfoxide (DMSO) at a concentration of either 100 mM or 25 mM prior to treatment. The cells were grown for 24 hrs before treatment at concentrations ranging from 0.004 to 100 microM and incubated for 48 hrs in 200 microL media. 20 microL of MTT reagent in serum free medium (5 mg/mL) was added to each well and incubated further for 2 hrs. Media was removed and the resulting formazan crystals were re-solubilized in 100 microL of DMSO and the optical density (OD) was measured using a Thermomax Molecular Device plate reader at a wavelength of 490 nm. The experiments were performed in quadruplicate and repeated at least twice for each compound per cell line. Cells treated with 0.1% DMSO were used as a negative control, while phenyl arsine oxide (PAO) was used as a positive killing control.
(§3) Human cancer cell lines were obtained from the American Type Culture Collection (ATCC, Manassas, Va., USA), the European Collection of Cell Culture (ECACC, Salisbury, UK) and the Deutsche Sammlung von Mikroorganismen and Zellkulturen (DSMZ, Braunschweig, Germany). Human cervical adenocarcinoma HeLa cells were cultured in DMEM supplemented with 10% fetal bovine serum (FBS). Human mammary carcinoma MCF-7 cells were cultured in RPMI supplemented with 10% FBS. The U87 and U373 cells were cultured in DMEM culture medium (Lonza code 12-136F, Vervier, Belgium), while the SKMEL-28 and A549 cells were cultured in RPMI culture medium (Lonza; code 12-115F) supplemented with 10% heat-inactivated FBS (Lonza, FBS South America code DE14-801F). […] All cell lines were cultured in T25 flasks, maintained and grown at 37° C., 95% humidity, 5% CO2.
(§4) To evaluate antiproliferative properties of the synthesized compounds, the MTT assay was used. The cell lines were assessed by trypsinizing each cell line and seeding 4×10^3 cells per well into 96-well plates. All compounds were dissolved in DMSO at a concentration of either 100 mM or 50 mM prior to cell treatment. The cells were grown for 24 h and then treated with compounds at concentrations ranging from 0.04 to 100 μM and incubated for 48 h in 200 μL media. 20 μL of MTT reagent in serum free medium (5 mg/mL) was added to each well and incubated further for 2 h. Media was removed, and the resulting formazan crystals were re-solubilized in 200 μL of DMSO. A490 was measured using a Thermomax Molecular Device plate reader. The experiments were performed in quadruplicate and repeated at least twice for each compound per cell line. Cells treated with 0.1% DMSO were used as a control, and 1 μM phenyl arsine oxide (PAO) was used as a positive killing control.
For orientation: Tetrazolium assays rely on reduction of a dye to a coloured formazan, in cell work by metabolically active cells.

The subject of assay [2] is MCF-7 mammary gland adenocarcinoma cells. As to the kind of experiment: MTT antiproliferative assay, MCF-7. In kind it is cell-based. Particulars: Homo sapiens, MCF7, MTT, ± SD. As to the method:
as §1, §2, §3, §4

[3] abbreviates: Table 1, 48 h treatment, read-out: GI50 in vitro Values, HeLa.
Setting [4] is: Table 1, 48 h treatment, read-out: GI50 in vitro Values, MCF-7.
Where [5] appears, read: Table 5, 48 h, read-out: cell viability GI50, HeLa.
The mark [6] stands for this setting: Table 5, 48 h, read-out: cell viability GI50, MCF-7.

Read-outs that look alike come from different tables or passages of the source. A value given as a limit tells only on which side of the number the result lay.

Broadly, the GI50 is the concentration that inhibits growth by half.

As for `N#Cc1cccc(-c2c(C(=O)c3ccccc3)[nH]c3[nH]cnc(=O)c23)c1` [Rig43, 3-(6-Benzoyl-4-oxo-4,7-dihydro-1H-pyrrolo[2,3-d]pyrimidin-5-yl)benzonitrile], the 50% growth inhibitory concentration (GI50) in assay [1] (setting [3]) came to 187 ± 9 nM; in assay [2] (setting [4]), 251 ± 17 nM.

`O=C(c1ccccc1)c1[nH]c2[nH]cnc(=O)c2c1-c1cccc(O)c1` [Rig42, 6-Benzoyl-5-(3-hydroxyphenyl)-1H-pyrrolo[2,3-d]pyrimidin-4(7H)-one]: the GI50 was 860 ± 60 nM in assay [1] (setting [3]) and 1100 ± 120 nM in assay [2] (setting [4]).

Take `O=C(c1ccccc1)c1[nH]c2[nH]cnc(=O)c2c1-c1cccc(Br)n1` [Rig30, 6-Benzoyl-5-(6-bromopyridin-2-yl)-1H-pyrrolo[2,3-d]pyrimidin-4(7H)-one]: the GI50 in assay [1] (setting [3]) came out at 150 ± 50 nM; in assay [2] (setting [4]), 135 ± 75 nM.

For `O=C(c1ccc(F)cc1)c1[nH]c2[nH]cnc(=O)c2c1-c1cc(Br)cc(Br)c1` [Rig13, 5-(3,5-Dibromophenyl)-6-(4-fluorobenzoyl)-1H-pyrrolo[2,3-d]pyrimidin-4(7H)-one], the concentration for 50% growth inhibition (GI50) in assay [1] (setting [3]) was determined as 6000 ± 1000 nM; in assay [2] (setting [4]) it was 800 ± 10 nM.

On to `CCCCc1nc(=O)c2c(-c3ccccc3)c(C(=O)c3ccccc3)[nH]c2[nH]1` [Compound 11, 6-Benzoyl-2-butyl-5-phenyl-1H-pyrrolo[2,3-d]pyrimidin-4(7H)-one], for which the concentration for 50% growth inhibition (GI50) turned out to be 340 ± 10 nM in assay [1] (setting [5]) and 230 ± 10 nM in assay [2] (setting [6]).

Regarding `O=C(c1ccccc1)c1[nH]c2[nH]cnc(=O)c2c1-c1cccc(Cl)c1` [Rig34, 6-Benzoyl-5-(3-chlorophenyl)-1H-pyrrolo[2,3-d]pyrimidin-4(7H)-one], the values for the GI50 in assay [1] (setting [3]) and in assay [2] (setting [4]) were 100 ± 70 nM and 60 ± 20 nM, respectively.

Take `COc1ccc(C(=O)c2[nH]c3[nH]cnc(=O)c3c2-c2cc(Br)cc(Br)c2)cc1` [Rig10, 5-(3,5-Dibromophenyl)-6-(4-methoxybenzoyl)-1H-pyrrolo[2,3-d]pyrimidin-4(7H)-one]: the GI50 in assay [1] (setting [3]) came out at 300 ± 70 nM; in assay [2] (setting [4]), 110 ± 35 nM.

`CCOC(=O)c1nc(=O)c2c(-c3ccccc3)c(C(=O)c3ccccc3)[nH]c2[nH]1` [Compound 7]: the GI50 in assay [1] (setting [5]) and in assay [2] (setting [6]) was more than 50000 nM throughout.

On to `O=C(c1ccccc1)c1[nH]c2[nH]c(-c3ccccc3)nc(=O)c2c1-c1ccccc1` [Compound 3, 6-Benzoyl-2-phenyl-5-phenyl-1H-pyrrolo[2,3-d]pyrimidin-4(7H)-one], for which the GI50 in assay [1] (setting [5]) and in assay [2] (setting [6]) was more than 50000 nM throughout.

Take `O=C(c1ccc(O)cc1)c1[nH]c2[nH]cnc(=O)c2c1-c1ccccc1` [Rig45, 6-(4-Hydroxybenzoyl)-5-phenyl-1H-pyrrolo[2,3-d]pyrimidin-4(7H)-one]: the GI50 in assay [1] (setting [3]) turned out to be 303 ± 5 nM; in assay [2] (setting [4]), 261 ± 50 nM.

For the compound `O=C(c1ccccc1)c1[nH]c2[nH]c(-c3cccnc3)nc(=O)c2c1-c1ccccc1` [Compound 4], the GI50 in assay [1] (setting [5]) and in assay [2] (setting [6]) was more than 50000 nM in each case.
